Data reported in ChEMBL document CHEMBL1130897, “Novel inhibitors of bacterial two-component systems with gram positive antibacterial activity: pharmacophore identification based on the screening hit closantel” (Bioorg Med Chem Lett, 1998).
Converted amounts (≈) assume the structure as drawn.

Assays:
Staphylococcus aureus [1] = assay: Compound was tested for its antibacterial activity against Staph aureus ATCC 29213.; format: functional
[2] = Partition coefficient (logP); format: physicochemical; settings: octanol/water
Enterococcus faecium = assay: Compound was tested for its antibacterial activity against Enterococcus faecium (Vancomycin resistant, VRE) OC 3312.; format: functional
Enterococcus faecalis = assay: Compound was tested for its antibacterial activity against Enterococcus faecalis OC 3041.; format: functional
[3] = target: T1, KinA/Spo0F (sporulation kinase A/sporulation initiation phosphotransferase F) (Bacillus subtilis (strain 168), UniProt P06628+P16497); assay: Inhibition of histidine protein kinase (KinA) phosphorylation in the presence of response regulator (Spo0F); format: protein assay
T1 sequence (P06628 whole entry): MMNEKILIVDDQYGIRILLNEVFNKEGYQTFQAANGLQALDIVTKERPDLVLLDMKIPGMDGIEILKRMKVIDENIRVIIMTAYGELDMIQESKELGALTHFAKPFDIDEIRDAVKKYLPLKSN
T1 sequence (P16497 whole entry): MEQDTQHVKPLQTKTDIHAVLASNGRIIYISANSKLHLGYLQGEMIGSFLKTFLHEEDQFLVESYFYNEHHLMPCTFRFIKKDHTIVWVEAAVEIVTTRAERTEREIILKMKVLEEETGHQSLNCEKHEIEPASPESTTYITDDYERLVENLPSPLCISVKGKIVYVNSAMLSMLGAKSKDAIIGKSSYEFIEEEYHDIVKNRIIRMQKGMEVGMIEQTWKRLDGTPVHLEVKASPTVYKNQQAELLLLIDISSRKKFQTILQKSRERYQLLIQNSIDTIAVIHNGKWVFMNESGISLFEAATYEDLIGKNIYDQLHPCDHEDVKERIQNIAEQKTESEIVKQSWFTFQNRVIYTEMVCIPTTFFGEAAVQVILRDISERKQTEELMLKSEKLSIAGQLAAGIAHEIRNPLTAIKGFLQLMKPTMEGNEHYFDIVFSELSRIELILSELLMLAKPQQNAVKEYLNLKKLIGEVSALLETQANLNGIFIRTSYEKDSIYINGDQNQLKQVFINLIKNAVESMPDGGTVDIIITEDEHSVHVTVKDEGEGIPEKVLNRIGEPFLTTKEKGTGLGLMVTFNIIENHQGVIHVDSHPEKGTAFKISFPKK

Staphylococcus aureus [4] = assay: Compound was tested for its antibacterial activity against MRSA (methicillin resistant) OC 2089.; format: functional

Question: For `O=C(Nc1ccc(Cl)c(Cl)c1)c1cc(Cl)cc(Cl)c1O` [3,3',4',5-TETRACHLOROSALICYLANILIDE], which MIC (Staphylococcus aureus [1]) is on record?
Answer: The MIC was 0.5 µg/mL (≈ 1.42 µM).

Question: And the logP [2]?
Answer: Its logP is 4.8.

Question: And the MIC (Enterococcus faecium)?
Answer: Its MIC is 0.5 µg/mL (≈ 1.42 µM).

Question: And the MIC (Enterococcus faecalis)?
Answer: Its MIC is 0.5 µg/mL (≈ 1.42 µM).

Question: What about the IC50 [3] of the same compound?
Answer: Its IC50 is 45 µM.

Question: And the MIC (Staphylococcus aureus [4])?
Answer: The MIC was 0.25 µg/mL (≈ 0.712 µM).

Question: With `Cc1cc(NC(=O)c2cc(Cl)cc(Cl)c2O)c(Cl)cc1C(C#N)c1ccc(Cl)cc1` (stereo unspecified) as the compound, how does the IC50 [3] read?
Answer: Its IC50 is 4.8 µM.

Question: With `COc1c(I)cc(I)cc1C(=O)Nc1cc(C)c(C(C#N)c2ccc(Cl)cc2)cc1Cl` (stereo unspecified) as the compound, how does the IC50 [3] read?
Answer: The IC50 was greater than 500 µM.

Question: With `Oc1c(Cl)cc(Cl)cc1/C=C/c1ccc(Cl)c(Cl)c1` as the compound, how does the IC50 [3] read?
Answer: Its IC50 is greater than 500 µM.

Question: Which IC50 [3] does the source give for `O=C(Nc1ccc(Cl)c(Cl)c1)c1cc(Cl)cc(Cl)c1` here?
Answer: The IC50 was greater than 500 µM.

Question: With `Cc1onc(-c2ccccc2)c1C(=O)N[C@@H]1C(=O)N2[C@@H]1SC(C)(C)[C@@H]2C(=O)O` [OXACILLIN] as the compound, how does the MIC (Staphylococcus aureus [1]) read?
Answer: The MIC was 0.25 µg/mL (≈ 0.623 µM).

Question: What about the MIC (Enterococcus faecium) of the same compound?
Answer: Its MIC is greater than 64 µg/mL.

Question: And the MIC (Enterococcus faecalis)?
Answer: The MIC was 16 µg/mL (≈ 39.9 µM).

Question: What about the MIC (Staphylococcus aureus [4]) of the same compound?
Answer: Its MIC is greater than 64 µg/mL.

Question: Which IC50 [3] does the source give for `O=C(Nc1ccc(Cl)c(Cl)c1)Nc1cc(Cl)cc(Cl)c1O` here?
Answer: The IC50 was 365 µM.

Question: What does the source list for `O=C(Nc1cc(Cl)cc(Cl)c1O)c1ccc(Cl)c(Cl)c1`?
Answer: MIC (Staphylococcus aureus [1]): 0.5 µg/mL (≈ 1.42 µM); MIC (Enterococcus faecium): 1 µg/mL (≈ 2.85 µM); MIC (Enterococcus faecalis): 2 µg/mL (≈ 5.7 µM); IC50 [3]: > 500 µM; MIC (Staphylococcus aureus [4]): 0.25 µg/mL (≈ 0.712 µM)

Question: With `CN[C@H](CC(C)C)C(=O)N[C@H]1C(=O)N[C@@H](CC(N)=O)C(=O)N[C@H]2C(=O)N[C@H]3C(=O)N[C@H](C(=O)N[C@H](C(=O)O)c4cc(O)cc(O)c4-c4cc3ccc4O)[C@H](O)c3ccc(c(Cl)c3)Oc3cc2cc(c3O[C@@H]2O[C@H](CO)[C@@H](O)[C@H](O)[C@H]2O[C@H]2C[C@](C)(N)[C@H](O)[C@H](C)O2)Oc2ccc(cc2Cl)[C@H]1O` [VANCOMYCIN] as the compound, how does the MIC (Enterococcus faecium) read?
Answer: The MIC was greater than 128 µg/mL.

Question: For `O=C(Nc1ccc(Cl)c(Cl)c1)c1cc(I)cc(I)c1O`, which IC50 [3] is on record?
Answer: The IC50 was 22 µM.

Question: Which IC50 [3] does the source give for `Cc1cc(NC(=O)c2cc(I)c(O)c(I)c2)c(Cl)cc1C(C#N)c1ccc(Cl)cc1` (stereo unspecified) here?
Answer: Its IC50 is 9 µM.

Question: With `Cc1cc(N(C)C(=O)c2cc(I)cc(I)c2O)c(Cl)cc1C(C#N)c1ccc(Cl)cc1` (stereo unspecified) as the compound, how does the IC50 [3] read?
Answer: The IC50 was greater than 500 µM.

Question: With `O=C(Nc1ccccc1)c1cc(Cl)cc(Cl)c1O` as the compound, how does the IC50 [3] read?
Answer: Its IC50 is 385 µM.

Question: With `O=C(Nc1ccc(Cl)c(Cl)c1)c1cc(Cl)c(O)c(Cl)c1` as the compound, how does the MIC (Staphylococcus aureus [1]) read?
Answer: The MIC was 16 µg/mL (≈ 45.6 µM).

Question: And the MIC (Enterococcus faecium)?
Answer: Its MIC is 64 µg/mL (≈ 182 µM).

Question: What about the MIC (Enterococcus faecalis) of the same compound?
Answer: Its MIC is 64 µg/mL (≈ 182 µM).

Question: What about the IC50 [3] of the same compound?
Answer: Its IC50 is 98 µM.

Question: And the MIC (Staphylococcus aureus [4])?
Answer: The MIC was 16 µg/mL (≈ 45.6 µM).

Question: For `O=C(NCc1ccc(Cl)c(Cl)c1)c1cc(Cl)cc(Cl)c1O`, which IC50 [3] is on record?
Answer: Its IC50 is greater than 500 µM.
